Assay results as given in patent US7807162B2, “Single domain VHH antibodies against von Willebrand factor” (Ablynx N.V., priority 2005, dated 2010).

Tested on: platelet adhesion to endothelial cell-derived ULvWF
Test: Platelet string formation on ULvWF of histamine-stimulated endothelial cells (perfusion)
Format: cell-based, human
Settings: 0.2, 2 and 10 μg/ml; platelets in buffer or TTP plasma; 2.5 dyn/cm2, 4 minutes
Protocol: Endothelial cells were obtained from human umbilical cord veins by the method of Maruyama (Z. Zellforsch. Mikrosk. A4nat. 60:69; 1963). Endothelial cells were activated with 100 μM histamine (Sigma-Aldrich, St Louis, Mo.) for 15 minutes at room temperature before the perfusion experiments.
Blood was drawn from healthy volunteers who denied ingestion of aspirin or other nonsteroidal anti-inflammatory drugs (NSAIDs) for the preceding 10 days into one-tenth volume 3.4% sodium citrate. Platelet-rich plasma (PRP) was prepared from whole blood by centrifugation (10 minutes at 200 g at room temperature). […] The platelet pellet was resuspended in HEPES (N-2-hydroxyethylpiperazine-N′-2-ethanesulfonic acid)-Tyrode buffer (10 mM HEPES, 137 mM NaCl, 2.68 mM KCl, 0.42 mM NaH2PO4, 1.7 mM MgCl2, 5 mM D-glucose, pH 6.5). Prostacyclin (PGI2, 10 ng/mL) was added to prevent platelet activation during the subsequent washing step. Platelets were spun down and resuspended in a small volume of HEPES-Tyrode buffer. This platelet suspension was diluted in HEPES buffer at pH 7.4, or in TTP plasma. […]
Endothelial cells were isolated from freshly obtained human umbilical cords by collagenase digestion of the interior of the umbilical vein. […] These ULvWF-adhered platelets appear as so-called ‘strings’, which are visible when the perfusion experiment is monitored by real-time video microscopy (FIG. 41). […]

Substance: ALX-0081: ALX-0081 (SEQ ID NO:98), Nanobody; humanised bivalent nanobody with the 3a linker
- string formation of platelets on ULvWF: complete inhibition of string formation
